According to the supplement of paper PMC10307832:

Assays:
Test in all cases: relative viability (nuclei count vs DMSO), 5 days (fraction); higher = more cells survive
[1] = compound: CN1CCN(c2ccc3nc(-c4c(N)c5c(F)cccc5[nH]c4=O)[nH]c3c2)CC1 [Dovitinib] + CC(=O)c1c(C)c2cnc(Nc3ccc(N4CCNCC4)cn3)nc2n(C2CCCC2)c1=O [Palbociclib] (partner 0.5 µM)
Summary of the method: (§1)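 Lung cancer cell lines were pin-tool dosed in 1536-well plates on the day after seeding, with either a lone drug or a fixed anchor-drug dose plus five library-drug doses (not always all listed) in √10 steps. Nuclei were counted on 4× images after 5 days. Relative viability is the ratio of treated-well to vehicle-well nuclei counts, with each value a median of duplicate plates.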

[2] = compound: CN1CCN(c2ccc3nc(-c4c(N)c5c(F)cccc5[nH]c4=O)[nH]c3c2)CC1 [Dovitinib] + Cc1nc(NC(=O)N2CCC[C@H]2C(N)=O)sc1-c1ccnc(C(C)(C)C(F)(F)F)c1 [Alpelisib] (partner 2 µM)
Summary of the method: as §1

[3] = compound: CN1CCN(c2ccc3nc(-c4c(N)c5c(F)cccc5[nH]c4=O)[nH]c3c2)CC1 [Dovitinib] + Nc1nc2[nH]cc(CCc3ccc(C(=O)N[C@@H](CCC(=O)O)C(=O)O)cc3)c2c(=O)[nH]1 [Pemetrexed] (partner 0.2 µM)
Summary of the method: as §1

[4] = compound: CN1CCN(c2ccc3nc(-c4c(N)c5c(F)cccc5[nH]c4=O)[nH]c3c2)CC1 [Dovitinib] + O=C(c1cc(Cc2n[nH]c(=O)c3ccccc23)ccc1F)N1CCN(C(=O)C2CC2)CC1 [Olaparib] (partner 8 µM)
Summary of the method: as §1

Cell Line | relative viability ([1]; first compound 0.02 µM) | relative viability ([1]; first compound 0.06325 µM) | relative viability ([1]; first compound 0.2 µM) | relative viability ([1]; first compound 0.6325 µM) | relative viability ([1]; first compound 2 µM) | relative viability ([2]; first compound 0.02 µM) | relative viability ([2]; first compound 0.06325 µM) | relative viability ([2]; first compound 0.2 µM) | relative viability ([2]; first compound 0.6325 µM) | relative viability ([2]; first compound 2 µM) | relative viability ([3]; first compound 0.02 µM) | relative viability ([3]; first compound 0.06325 µM) | relative viability ([3]; first compound 0.2 µM) | relative viability ([3]; first compound 0.6325 µM) | relative viability ([3]; first compound 2 µM) | relative viability ([4]; first compound 0.02 µM) | relative viability ([4]; first compound 0.06325 µM) | relative viability ([4]; first compound 0.2 µM) | relative viability ([4]; first compound 0.6325 µM) | relative viability ([4]; first compound 2 µM)
NCI-H1734 | 0.371 | 0.387 | 0.355 | 0.338 | 0.416 | 0.711 | 0.697 | 0.675 | 0.626 | 0.641 | 0.443 | 0.442 | 0.414 | 0.403 | 0.418 | 0.66 | 0.648 | 0.547 | 0.605 | 0.678
NCI-H1755 | 0.47 | 0.427 | 0.479 | 0.463 | 0.471 | 0.951 | 0.916 | 0.923 | 0.903 | 0.878 | 0.432 | 0.382 | 0.433 | 0.4 | 0.423 | 0.893 | 0.858 | 0.914 | 0.842 | 0.878
NCI-H1792 | 0.642 | 0.668 | 0.684 | 0.583 | 0.643 | 0.674 | 0.617 | 0.745 | 0.725 | 0.676 | 0.909 | 0.631 | 0.672 | 0.972 | 0.827 | 0.582 | 0.41 | 0.404 | 0.614 | 0.548
NCI-H1793 | 0.365 | 0.297 | 0.311 | 0.299 | 0.311 | 0.928 | 0.601 | 0.88 | 0.831 | 0.623 | 1.27 | 0.735 | 0.96 | 0.916 | 0.943 | 0.901 | 0.928 | 0.786 | 0.873 | 1.02
NCI-H1915 | 0.512 | 0.533 | 0.537 | 0.488 | 0.553 | 0.992 | 1.04 | 1.06 | 0.983 | 1.04 | 0.459 | 0.466 | 0.536 | 0.473 | 0.467 | 0.253 | 0.27 | 0.271 | 0.264 | 0.257
NCI-H1944 | 0.305 | 0.356 | 0.323 | 0.346 | 0.308 | 0.822 | 0.846 | 0.809 | 0.777 | 0.858 | 0.583 | 0.649 | 0.677 | 0.739 | 0.597 | 0.416 | 0.422 | 0.447 | 0.387 | 0.426
NCI-H1975 | 0.657 | 0.674 | 0.58 | 0.645 | 0.598 | 0.625 | 0.685 | 0.603 | 0.604 | 0.547 | 0.305 | 0.286 | 0.268 | 0.294 | 0.294 | 0.733 | 0.912 | 0.671 | 0.792 | 0.74
NCI-H1993 | 0.856 | 0.721 | 0.639 | 0.547 | 0.66 | 0.599 | 0.683 | 0.642 | 0.71 | 0.734 | 0.665 | 0.521 | 0.633 | 0.594 | 0.486 | 1.07 | 0.961 | 1.08 | 0.912 | 0.982
NCI-H2009 | 0.203 | 0.202 | 0.291 | 0.353 | 0.244 | 1.07 | 1.16 | 1.06 | 1.14 | 1.14 | 0.967 | 1.06 | 1.03 | 0.979 | 1.03 | 0.651 | 0.668 | 0.657 | 0.671 | 0.832
NCI-H2023 | 0.357 | 0.359 | 0.388 | 0.345 | 0.359 | 0.558 | 0.574 | 0.606 | 0.57 | 0.523 | 0.205 | 0.232 | 0.238 | 0.216 | 0.19 | 0.454 | 0.487 | 0.541 | 0.432 | 0.482
NCI-H2085 | 0.481 | 0.476 | 0.477 | 0.415 | 0.493 | 1.05 | 0.987 | 0.88 | 0.936 | 1.03 | 0.941 | 0.991 | 1.03 | 0.871 | 0.958 | 0.731 | 0.828 | 0.723 | 0.762 | 0.758
NCI-H2087 | 0.276 | 0.229 | 0.191 | 0.197 | 0.255 | 1.35 | 1.31 | 1.02 | 0.989 | 1.01 | 0.755 | 0.668 | 0.661 | 0.716 | 0.616 | 0.631 | 0.519 | 0.604 | 0.571 | 0.689
NCI-H2126 | 0.363 | 0.357 | 0.354 | 0.339 | 0.327 | 0.761 | 0.72 | 0.716 | 0.769 | 0.695 | 0.734 | 0.653 | 0.676 | 0.705 | 0.711 | 0.871 | 0.934 | 0.92 | 0.936 | 0.878
NCI-H2170 | 0.419 | 0.448 | 0.399 | 0.39 | 0.407 | 0.672 | 0.807 | 0.889 | 0.77 | 0.83 | 0.267 | 0.33 | 0.267 | 0.265 | 0.281 | 0.617 | 0.607 | 0.606 | 0.605 | 0.542
NCI-H2228 | 0.763 | 0.815 | 0.696 | 0.79 | 0.678 | 0.997 | 0.674 | 0.61 | 0.837 | 0.565 | 0.258 | 0.344 | 0.324 | 0.33 | 0.321 | 0.689 | 0.592 | 0.866 | 0.768 | 0.573
NCI-H2347 | 0.454 | 0.446 | 0.462 | 0.474 | 0.409 | 1.11 | 0.988 | 1.08 | 1.09 | 1.09 | 0.479 | 0.53 | 0.415 | 0.467 | 0.475 | 0.568 | 0.59 | 0.621 | 0.641 | 0.606
